Source: US8470889B2 (TRT Pharma Inc., priority 2008, dated 2013)
Read-outs that look alike come from different tables or passages of the source.

Columns and labels:
LNCaP cells [1] = system: LNCaP cells;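 note: MTT formazan absorbance at 600 nm read after 72 h of compound exposure, IC50 fitted by nonlinear regression of dose-response curves, samples run in triplicate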
22Rv1 cells [2] = system: 22Rv1 cells
C4-2B cells [3] = system: C4-2B cells;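 note: cells treated with a dilution series for 72 h, then MTT added and absorbance read at 600 nm, IC50 fitted from dose-response curves by nonlinear regression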
Description: (§1) MDA PCa 2b was seeded at the same density in medium BRFF-HPC1 (Athena Enzyme Systems, Baltimore, Md., USA) supplemented with 20% FBS. After overnight incubation, the medium was changed to a fresh medium containing different concentrations of test compounds diluted from stock DMSO solution. The final concentration of DMSO is 0.5%. After 72 h of incubation with test compounds, 20 μL of 3-(4,5-dimethyl thiazol-2-yl)-2,5-diphenyltetrazolium bromide (MTT) solution (5 mg/mL in PBS) were added to each well and incubated further for 2 h. Next, the supernatant was aspirated and the MTT formazan formed by metabolically viable cells was dissolved in 100 μL of isopropanol. The plates were mixed for 30 min, and the absorbance was measured at 600 nm on a plate reader (FLUOstar OPTIMA, BMG LabTech). All samples were in triplicate. The IC50 values were determined from dose-response curves by nonlinear regression using PRISM v5.00 (GraphPad Software Inc, La Jolla, Calif., USA).
(§2) The in vitro cytotoxicity of 1-20 were evaluated by MTT assays in a panel of prostate cancer cell lines, including LNCaP, MDA PCa 2b, 22Rv1, C4-2B and PC-3.

PC-3 cells [4] = system: PC-3 cells
LNCaP cells [5] = assay: MTT cell growth inhibition, LNCaP;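 note: MTT formazan absorbance at 600 nm read after 72 h of compound exposure, IC50 fitted by nonlinear regression of dose-response curves, samples run in triplicate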
PC-3 cells [6] = assay: MTT cell growth inhibition, PC-3; settings: read-out: Cellular IC50 (μM) PC-3, Table 9
22Rv1 cells [7] = assay: MTT cell growth inhibition, 22Rv1; settings: read-out: Cellular IC50 (μM) 22Rv1; Table 9; MTT
C4-2B cells [8] = assay: MTT cell growth inhibition, C4-2B; settings: read-out: Cellular IC50 (μM) C4-2B, Table 9;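 note: cells treated with a dilution series for 72 h, then MTT added and absorbance read at 600 nm, IC50 fitted from dose-response curves by nonlinear regression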
Description: as §1, §2

[9] = read-out: Cellular IC50 (μM) LNCaP, Table 9

Description for MDA PCa 2b cells: as §1, §2

SMILES | IC50 (LNCaP cells [1]) | IC50 (22Rv1 cells [2]) | IC50 (PC-3 cells [4]) | other results
CC1=CCCC(C)(C)C1/C=C/C(=O)/C=C/c1ccccc1C(F)(F)F (racemic) [Compound B16] | 22.6 µM | 18.4 µM | 19 µM | IC50 (C4-2B cells [3]): 11.7 µM
CC1=CCCC(C)(C)C1/C=C/C(=O)/C=C/c1ccc(C(F)(F)F)cc1 (racemic) [Compound B18] | 4.7 µM | 3.3 µM | 7.9 µM | IC50 (MDA PCa 2b cells): 7 µM; IC50 (C4-2B cells [3]): 5.2 µM
CC1=CCCC(C)(C)C1/C=C/C(=O)/C=C/c1ccccc1F (racemic) [Compound B19] | 1.6 µM | 9.4 µM | 4.8 µM | IC50 (MDA PCa 2b cells): 8.3 µM; IC50 (C4-2B cells [3]): 6 µM
CC1=CCCC(C)(C)C1/C=C/C(=O)/C=C/c1cc(C(F)(F)F)ccc1F (racemic) [Compound B20] | 1.7 µM | 3.5 µM | 3.1 µM | IC50 (MDA PCa 2b cells): 3 µM; IC50 (C4-2B cells [3]): 4.7 µM
CC1=CCCC(C)(C)C1/C=C/C(=O)/C=C/c1cccc(C)c1 (racemic) [Compound B22] | 12.2 µM | 15.2 µM | 5.9 µM | IC50 (C4-2B cells [3]): 6.2 µM
CC1=C(/C=C/C(=O)/C=C/c2ccccc2C(F)(F)F)C(C)(C)CCC1O (racemic) [Compound B24] | 2.9 µM | 2.3 µM | 3.7 µM | IC50 (MDA PCa 2b cells): 2.9 µM
CC1=C(/C=C/C(=O)/C=C/c2ccc(C(F)(F)F)cc2)C(C)(C)CCC1O (racemic) [Compound B26] | 3 µM | 3.2 µM | 10.2 µM | IC50 (MDA PCa 2b cells): 9.3 µM
CC1=C(/C=C/C(=O)/C=C/c2cc(C(F)(F)F)ccc2C(F)(F)F)C(C)(C)CCC1O (racemic) [Compound B27] | 3.2 µM | – | 1.9 µM | IC50 (MDA PCa 2b cells): 4 µM
CC1=C(/C=C/C(=O)/C=C/c2cc(C(F)(F)F)cc(C(F)(F)F)c2)C(C)(C)CCC1O (racemic) [Compound B28] | 2.1 µM | 2.2 µM | 7 µM | IC50 (MDA PCa 2b cells): 3.5 µM
CC1=C(/C=C/C(=O)/C=C/c2ccccc2F)C(C)(C)CCC1O (racemic) [Compound B29] | 2.9 µM | 3.3 µM | 10.4 µM | –
CC1=C(/C=C/C(=O)/C=C/c2cccc(F)c2)C(C)(C)CCC1O (racemic) [Compound B30] | 4.4 µM | 5.6 µM | 16 µM | –
CC1=C(/C=C/C(=O)/C=C/c2ccc(F)cc2)C(C)(C)CCC1O (racemic) [Compound B31] | 3.9 µM | 7.5 µM | 6.2 µM | IC50 (C4-2B cells [3]): 4 µM
CC1=C(/C=C/C(=O)/C=C/c2cc(F)cc(C(F)(F)F)c2)C(C)(C)CCC1O (racemic) [Compound B33] | 1.1 µM | 2.4 µM | 3 µM | –
CC1=C(/C=C/C(=O)/C=C/c2cccc(C(F)(F)F)c2F)C(C)(C)CCC1O (racemic) [Compound B34] | 1.1 µM | – | 2.1 µM | –
CC1=C(/C=C/C(=O)/C=C/c2ccc(C(F)(F)F)cc2F)C(C)(C)CCC1O (racemic) [Compound B35] | 2.6 µM | 3.8 µM | 4.6 µM | –
CC1=C(/C=C/C(=O)/C=C/c2cc(C(F)(F)F)ccc2F)C(C)(C)CCC1O (racemic) [Compound B36] | 1.7 µM | 2 µM | 3.6 µM | –
CC1=C(/C=C/C(=O)/C=C/c2c(F)cccc2C(F)(F)F)C(C)(C)CCC1O (racemic) [Compound B37] | 4.9 µM | 8.9 µM | 8.8 µM | –
CC1=C(/C=C/C(=O)/C=C/c2cccc(C)c2)C(C)(C)CCC1O (racemic) [Compound B38] | 4.1 µM | 4.4 µM | 6.2 µM | IC50 (MDA PCa 2b cells): 19 µM
CC1=C(/C=C/C(=O)/C=C/c2cccc(C#N)c2)C(C)(C)CCC1O (racemic) [Compound B39] | 1.8 µM | 2.2 µM | 7.2 µM | –
CC1=C(/C=C/C(=O)/C=C/c2cccc([N+](=O)[O-])c2)C(C)(C)CCC1O (racemic) [Compound B40] | 2 µM | 1.9 µM | 5.8 µM | IC50 (MDA PCa 2b cells): 6 µM
CC1=C(/C=C/C(=O)/C=C/c2ccc([N+](=O)[O-])cc2)C(C)(C)CCC1O (racemic) [Compound B41] | 4.2 µM | 4.1 µM | 15 µM | –
COc1cccc(/C=C/C(=O)/C=C/C2=C(C)C(O)CCC2(C)C)c1 (racemic) [Compound B42] | 4.9 µM | – | 6.5 µM | –
COc1cc(/C=C/C(=O)/C=C/C2=C(C)CCCC2(C)C)ccc1O [Compound B1] | 9.5 µM | – | 21.3 µM | –
COc1ccc(/C=C/C(=O)/C=C/C2=C(C)CCCC2(C)C)cc1O [Compound B2] | 9.9 µM | – | 37.4 µM | –
COc1ccc(/C=C/C(=O)/C=C/C2=C(C)CCCC2(C)C)cc1OC [Compound B3] | 9.5 µM | – | 42 µM | –
CCOc1ccc(/C=C/C(=O)/C=C/C2=C(C)CCCC2(C)C)cc1OCC [Compound B4] | 8.2 µM | – | > 50 µM | –

SMILES | IC50 (LNCaP cells [1]) | IC50 (22Rv1 cells [2]) | IC50 (PC-3 cells [4]) | other results
CC1=C(/C=C/C(=O)/C=C/c2cccc(C(F)(F)F)c2)C(C)(C)CCC1 [Compound B5] | – | – | 7.7 µM | IC50 (LNCaP cells [5]; read-out: IC50 in LNCaP cells): 2.8 µM
CC1=C(/C=C/C(=O)/C=C/c2ccc(C(F)(F)F)cc2)C(C)(C)CCC1 [Compound B6] | 9.1 µM | – | 12 µM | –
CC1=C(/C=C/C(=O)/C=C/c2cc(C(F)(F)F)cc(C(F)(F)F)c2)C(C)(C)CCC1 [Compound B7] | 8.7 µM | – | 7.2 µM | –
CC1=C(/C=C/C(=O)/C=C/c2ccccc2F)C(C)(C)CCC1 [Compound B8] | 10.7 µM | – | 22.1 µM | –
CC1=C(/C=C/C(=O)/C=C/c2cccc(F)c2)C(C)(C)CCC1 [Compound B9] | – | – | 18.7 µM | IC50 (LNCaP cells [5]; read-out: IC50 in LNCaP cells): 12.9 µM
CC1=C(/C=C/C(=O)/C=C/c2ccc(F)cc2)C(C)(C)CCC1 [Compound B10] | 7.3 µM | – | 25.8 µM | –
CC1=C(/C=C/C(=O)/C=C/c2cccc([N+](=O)[O-])c2)C(C)(C)CCC1 [Compound B11] | 2.7 µM | – | 10 µM | –
CC1=C(/C=C/C(=O)/C=C/c2ccc(O)c([N+](=O)[O-])c2)C(C)(C)CCC1 [Compound B12] | 26.8 µM | – | > 50 µM | –
CC1=C(/C=C/C(=O)/C=C/c2cc([N+](=O)[O-])ccc2Cl)C(C)(C)CCC1 [Compound B13] | 4.2 µM | – | 18.9 µM | –
CC1=C(/C=C/C(=O)/C=C/c2cccc(C)c2)C(C)(C)CCC1 [Compound B14] | 17.8 µM | – | 35 µM | –
CC1=C(/C=C/C(=O)/C=C/c2ccc(-c3ccccc3)cc2)C(C)(C)CCC1 [Compound B15] | 14.8 µM | – | 47.8 µM | –
CCOC(OCC)c1cccc(/C=C/C(=O)/C=C/C2=C(C)C(O)CCC2(C)C)c1 (stereo not shown) [Compound B43] | 1.8 µM | – | 4.7 µM | –
CC1(C)CCC(O)C=C1/C=C/C(=O)/C=C/c1ccc2c(c1)OCCO2 (stereo not shown) [Compound B78] | – | – | – | IC50 (PC-3 cells [6]): 23.2 µM; IC50 (LNCaP cells [5]; [9]): 10.8 µM; IC50 (22Rv1 cells [7]): 19.3 µM; IC50 (C4-2B cells [8]): 10.3 µM
CC1(C)CCC(O)C=C1/C=C/C(=O)/C=C/c1ccc2c(c1)CCO2 (stereo not shown) [Compound B79] | – | – | – | IC50 (PC-3 cells [6]): 14.8 µM; IC50 (LNCaP cells [5]; [9]): 4.7 µM; IC50 (22Rv1 cells [7]): 10.4 µM; IC50 (C4-2B cells [8]): 5.6 µM
CC1(C)CCC(O)C=C1/C=C/C(=O)/C=C/c1c[nH]c2ccccc12 (stereo not shown) [Compound B81] | – | – | – | IC50 (PC-3 cells [6]): 15.2 µM; IC50 (LNCaP cells [5]; [9]): 4.6 µM; IC50 (22Rv1 cells [7]): 9.1 µM; IC50 (C4-2B cells [8]): 2.3 µM
Cc1ccc2[nH]cc(/C=C/C(=O)/C=C/C3=CC(O)CCC3(C)C)c2c1 (stereo not shown) [Compound B82] | – | – | – | IC50 (PC-3 cells [6]): 10.6 µM; IC50 (LNCaP cells [5]; [9]): 3.8 µM; IC50 (22Rv1 cells [7]): 7.3 µM; IC50 (C4-2B cells [8]): 6.8 µM
CC1(C)CCC(O)C=C1/C=C/C(=O)/C=C/c1c[nH]c2ccc(Cl)cc12 (stereo not shown) [Compound B84] | – | – | – | IC50 (PC-3 cells [6]): 24.5 µM; IC50 (LNCaP cells [5]; [9]): 17.8 µM; IC50 (22Rv1 cells [7]): 14.3 µM; IC50 (C4-2B cells [8]): 18.2 µM
CC1(C)CCC(O)C=C1/C=C/C(=O)/C=C/c1c[nH]c2ccc(Br)cc12 (stereo not shown) [Compound B85] | – | – | – | IC50 (PC-3 cells [6]): 5.8 µM; IC50 (LNCaP cells [5]; [9]): 2.2 µM; IC50 (22Rv1 cells [7]): 4 µM; IC50 (C4-2B cells [8]): 4.8 µM
Cc1cccc2c(/C=C/C(=O)/C=C/C3=CC(O)CCC3(C)C)c[nH]c12 (stereo not shown) [Compound B86] | – | – | – | IC50 (PC-3 cells [6]): 6.4 µM; IC50 (LNCaP cells [5]; [9]): 2.6 µM; IC50 (22Rv1 cells [7]): 5.3 µM; IC50 (C4-2B cells [8]): 3.6 µM
CC1(C)CCC(O)C=C1/C=C/C(=O)/C=C/c1c(-c2ccccc2)[nH]c2ccccc12 (stereo not shown) [Compound B87] | – | – | – | IC50 (PC-3 cells [6]): 13.7 µM; IC50 (LNCaP cells [5]; [9]): 3.2 µM; IC50 (22Rv1 cells [7]): 12.6 µM; IC50 (C4-2B cells [8]): 2.2 µM
Cn1cc(/C=C/C(=O)/C=C/C2=CC(O)CCC2(C)C)c2ccccc21 (stereo not shown) [Compound B88] | – | – | – | IC50 (PC-3 cells [6]): 54.9 µM; IC50 (LNCaP cells [5]; [9]): 9.4 µM; IC50 (22Rv1 cells [7]): 21 µM; IC50 (C4-2B cells [8]): 11.8 µM
CC1(C)CCC(O)C=C1/C=C/C(=O)/C=C/c1ccc2[nH]ccc2c1 (stereo not shown) [Compound B89] | – | – | – | IC50 (PC-3 cells [6]): 3.1 µM; IC50 (LNCaP cells [5]; [9]): 1.5 µM; IC50 (22Rv1 cells [7]): 2.3 µM; IC50 (C4-2B cells [8]): 1.6 µM
CC1(C)CCC(O)C=C1/C=C/C(=O)/C=C/c1cccc2cc[nH]c12 (stereo not shown) [Compound B90] | – | – | – | IC50 (PC-3 cells [6]): 2.1 µM; IC50 (LNCaP cells [5]; [9]): 1.4 µM; IC50 (22Rv1 cells [7]): 2.1 µM; IC50 (C4-2B cells [8]): 1.7 µM
CC1(C)CCC(O)C=C1/C=C/C(=O)/C=C/c1cc2ccccc2s1 (stereo not shown) [Compound B93] | – | – | – | IC50 (PC-3 cells [6]): 23.8 µM; IC50 (LNCaP cells [5]; [9]): 12.9 µM; IC50 (22Rv1 cells [7]): 17.6 µM; IC50 (C4-2B cells [8]): 9.9 µM
CC1(C)CCC(O)C=C1/C=C/C(=O)/C=C/c1ccc2ccccc2n1 (stereo not shown) [Compound B94] | – | – | – | IC50 (PC-3 cells [6]): 5.5 µM; IC50 (LNCaP cells [5]; [9]): 2 µM; IC50 (22Rv1 cells [7]): 2.7 µM; IC50 (C4-2B cells [8]): 1.5 µM
CC1(C)CCC(O)C=C1/C=C/C(=O)/C=C/c1ccnc2ccccc12 (stereo not shown) [Compound B96] | – | – | – | IC50 (PC-3 cells [6]): 2.2 µM; IC50 (LNCaP cells [5]; [9]): 1.5 µM; IC50 (22Rv1 cells [7]): 1.2 µM; IC50 (C4-2B cells [8]): 1.5 µM
